Assay results as given in US20060013899A1, “Topical compositions for treatment of skin disorders and methods of use thereof” (priority 2004, published 2006).

Key:
interleukin-8 = settings: cited from earlier work
[1] = system: mild to moderate eczema lesions
From the text: Anecdotally, zinc pyrithione appears to produce a transient histamine blocking or inhibiting mechanism.

[2] = system: eczema, psoriasis and other forms of immuno-dysfunctional dermatitis; test: control of eczema, psoriasis and other immuno-dysfunctional dermatitis by the individual ingredients and their combination; format: in vivo, human
From the text: The present invention includes zinc pyrithione, which has been used in other preparations for various types of skin conditions. Zinc pyrithione may be used to control mild to possibly moderate eczema and psoriasis.
The explanations above provide some validation of how these three ingredients may provide limited benefits, but cannot explain the dynamics of their relationship in the control of pro-inflammatory cytokines and the speed of the repair and healing process.

[3] = only known side effect; cited from earlier work
[4] = 24 patients, 0.25% zinc pyrithione spray; cited from earlier work
[5] = suspended in a water solution, topical, mild to moderate eczema lesions

Row | Substance | tumor necrosis factor-alpha mediated interleukin-8 expression (interleukin-8) | erythema ([1]; during the period of itch relief) | duration of itch relief [1, 5] | time to relief of the itching sensation [1, 5] | control of disease ([2]; ingredient used individually or the three combined) | control of disease in the moderate to severe ranges ([2]; zinc pyrithione by itself) | normal allergic reaction, share of the population [3] | effect on the efficacy of clobetasol propionate [4]
1 | epigallocatechin-3-gallate | inhibits tumor necrosis factor-alpha mediated interleukin-8 expression in a dose related manner |  |  |  |  |  |  | 
2 | zinc pyrithione |  | erythema was reduced | up to six | fifteen to thirty | some degree of control benefits for mild and possibly moderate eczema, psoriasis | fails to control these diseases in the moderate to severe ranges | less than one | did not appear to enhance the efficacy of clobetasol propionate
